Reference: patent US20090304756A1, “Method for the Encapsulation and Controlled Release of Poorly Water-Soluble (Hyprophobic) Liquid and Solid Active Ingredients” (priority 2005, published 2009)

Columns and labels:
[1] = Amount of imidacloprid in particles, release into excess methanol with UV/vis analysis of supernatant; assay type: physicochemical; conditions: silica templates 5 μm, pore 6 nm, PSS/PAH coated; released in large excess of methanol
Experimental: 25 mg of the somewhat water-soluble active ingredient imidacloprid were dissolved in 3 ml of acetone, and 100 mg of spherical, porous silica templates (diameter 5 μm, pore size 6 nm) were added. After incubation for 30 min, water was added stepwise until the solution reached saturation of imidacloprid, evident from further considerable cloudiness. The supernatant was centrifuged off and the particles were suspended with 1% SDS solution. In this connection, here and in all of the following washing and coating solutions, imidacloprid saturated solutions were used in order to prevent a dissolving out from the particles. After the coating with PSS and PAH (analogously to Example 1), separate particles filled with 15% m/m (mass of imidacloprid/mass of particles) were obtained (FIG. 3). The amount of imidacloprid was determined by releasing the active ingredient in a large excess in methanol with subsequent UV/vis spectroscopic analysis of the supernatant.

[2] = Perylene concentration in particle interior by confocal fluorescence microscopy; assay type: physicochemical; conditions: C18 silica templates 5 μm, pore 6 nm, PAH/PSS LbL coated; self-quenching may feign lower concentration
Experimental: 12.5 mg of the model dye perylene were dissolved in 6 ml of chloroform. A suspension of 100 mg of spherical, porous silica templates (diameter 5 μm, pore size 6 nm) in 1 ml of chloroform was added thereto. The surface of the templates is hydrophobically modified with C18 alkyl chains (RP 18, chromatography material). The solvent was evaporated at 40° C. in a drying cabinet with stirring. The powder which remained was resuspended in water with the help of 1% sodium dodecyl sulphate (SDS). […] Besides the fluorescence of the perylene in the particles, a few larger (and lighter) crystals of the pure dye can also be seen which no longer arise when using smaller fill amounts. The SDS solution was centrifuged off and the particles were incubated with 500 μl of a solution of 1 g/l Cy5 labelled poly(allylamine hydrochloride) (PAH-Cy5, MW 70000 g/mol), pH 6.5 and 0.5 M NaCl for 20 min with brief application of ultrasound. After washing the particles three times with water, 500 μl of a solution of 1 g/l of poly(sodium 4-styrenesulphonate) (PSS, MW 70000 g/mol) in 0.5 M NaCl with pH 6.1 are added. […]
The concentration of the perylene in the interior of the particles was determined via the fluorescence by confocal microscopy by reference to comparison solutions. […]

O=[N+]([O-])NC1=NCCN1Cc1ccc(Cl)nc1 [imidacloprid]
filling (mass of imidacloprid/mass of particles) [1]: 15 % m/m

c1cc2cccc3c4cccc5cccc(c(c1)c23)c54 [perylene]
concentration of perylene in the interior of the particles [2]: 8.5 mg of perylene per 100 mg of particles
